Assay results as given in ChEMBL document CHEMBL4665733, “Selective thyroid hormone receptor β agonists with oxadiazolone acid isosteres” (Bioorg Med Chem Lett, 2020).
Activity calls are given as the source filed them. The rule behind the calls is not given here.

How the values were obtained:
Homo sapiens = species on record: Homo sapiens; assay: Selectivity index, ratio of EC50 for THRalpha (unknown origin) to EC50 for THRbeta (unknown origin)
Rattus norvegicus = species on record: Rattus norvegicus; assay: Antihyperlipidemic activity in high cholesterol diet-induced Sprague-Dawley rat model of hypercholesterolemia assessed as reduction in serum total cholesterol level after 24 hrs; type: functional, organism-based
[1] = Half life in cynomolgus monkey at 10 mg/kg, po measured up to 24 hrs by LC-MS/MS analysis; type: ADME, organism-based, Macaca fascicularis; settings: in vivo
[2] = Half life in Beagle dog at 10 mg/kg, po measured up to 24 hrs by LC-MS/MS analysis; type: ADME, organism-based, Canis lupus familiaris; settings: in vivo
[3] = Half life in Sprague-Dawley rat at 10 mg/kg, po measured up to 24 hrs by LC-MS/MS analysis; type: ADME, organism-based; settings: in vivo
[4] = Plasma clearance in Sprague-Dawley rat at 1 mg/kg, iv and 2 mg/kg, po; type: ADME, organism-based
Mus musculus [5] = assay: Agonist activity at THRbeta in C57BL/6J mouse model of NASH assessed as increase in Dio1 gene expression in liver at 30 mg/kg, po via gavage administered once daily for 28 days; type: functional, organism-based; settings: time 28.0 day
Mus musculus [6] = assay: Antifibrotic activity in CCl4-induced C57BL/6J mouse model of liver fibrosis assessed as reduction in liver fibrosis at 30 mg/kg, po via gavage administered once daily for 28 days by Sirius Red staining based histological analysis; type: functional, organism-based; settings: time 28.0 day
Mus musculus [7] = assay: Agonist activity at THRbeta in C57BL/6J mouse model of NASH assessed as increase in CYP7A1 gene expression in liver at 30 mg/kg, po via gavage administered once daily for 28 days; type: functional, organism-based; settings: time 28.0 day
[8] = Oral bioavailability in Sprague-Dawley rat at 2 mg/kg; type: ADME, organism-based; settings: in vivo
[9] = MRT in Sprague-Dawley rat at 3 mg/kg, ip; type: ADME, organism-based; settings: in vivo
[10] = Dissociation constant, pKa of compound; type: physicochemical
[11] = Volume of distribution at steady state in Sprague-Dawley rat at 1 mg/kg, iv and 2 mg/kg, po; type: ADME, organism-based; settings: in vivo, read-out: Vdss
[12] = AUC (0 to 24 hrs) in C57BL/6J mouse at 30 mg/kg, po administered via gavage as single dose; type: ADME, organism-based; design: time < 24 hr, route oral, dose 30 mg/kg; settings: in vivo
Mus musculus [13] = assay: Anti-hepatosteatosis activity in C57BL/6J mouse model of high fat-induced obesity assessed as reduction in liver steatosis at 30 mg/kg, po via gavage administered once daily for 28 days by hematoxylin-eosin staining based histological analysis; type: functional, organism-based; settings: time 28.0 day
[14] = Tmax in Sprague-Dawley rat at 3 mg/kg, ip; type: ADME, organism-based; settings: in vivo

`CC(CO)c1cc(Oc2c(Cl)cc(NC(=O)c3noc(=O)[nH]3)cc2Cl)nn(C)c1=O` (racemic) gave a Ratio EC50 (Homo sapiens) of 9.2.

In the case of `CC(C)c1cc(Oc2c(Cl)cc(NC(C)c3noc(=O)[nH]3)cc2Cl)nn(C)c1=O` (racemic), the Ratio EC50 (Homo sapiens) is reported as 0.2.

Compound `CC(C)(O)c1cc(Oc2c(Cl)cc(NC(=O)c3noc(=O)[nH]3)cc2Cl)n[nH]c1=O` has a Ratio EC50 (Homo sapiens) of 11.1.

Compound `CC(C)(C)c1cc(Oc2c(Cl)cc(NC(=O)c3noc(=O)[nH]3)cc2Cl)n[nH]c1=O` has a Ratio EC50 (Homo sapiens) of 12.3.

In the case of `CC(C)c1cc(Oc2c(Cl)cc(N(C)Cc3noc(=O)[nH]3)cc2Cl)nn(C)c1=O`, the Ratio EC50 (Homo sapiens) is reported as 0.5.

Compound `CC(C)c1cc(Oc2c(Cl)cc(NCc3noc(=O)[nH]3)cc2Cl)n[nH]c1=O` has a Ratio EC50 (Homo sapiens) of 1.8.

`CC(C)c1cc(C(=O)c2c(Cl)cc(NCc3noc(=O)[nH]3)cc2Cl)nn(C)c1=O` gave a Ratio EC50 (Homo sapiens) of 0.8.

`CC(C)c1cc(Oc2c(Cl)cc(NCc3noc(=O)[nH]3)cc2Cl)nn(C)c1=O` gave a Ratio EC50 (Homo sapiens) of 8.6.

Compound `CC(C)c1cc(C(=O)c2c(Cl)cc(NC(=O)c3noc(=O)[nH]3)cc2Cl)nn(C)c1=O` has a Ratio EC50 (Homo sapiens) of 6.1.

`CC(O)c1cc(Oc2c(Cl)cc(NC(=O)c3noc(=O)[nH]3)cc2Cl)n[nH]c1=O` (racemic) showed a Ratio EC50 (Homo sapiens) of 16.5.

For `CC(C)c1cc(Cc2c(Cl)cc(NC(=O)c3noc(=O)[nH]3)cc2Cl)nn(C)c1=O`, the Ratio EC50 (Homo sapiens) was 14.5.

With `CC(C)c1cc(Oc2c(Cl)cc(NC(=O)c3noc(=O)[nH]3)cc2Cl)n[nH]c1=O` the Activity (Rattus norvegicus) was “Dose-dependent effect” and the Ratio EC50 (Homo sapiens) was 21.6.

For `CC(C)c1cc(Oc2c(Cl)cc(-n3nc(C#N)c(=O)[nH]c3=O)cc2Cl)n[nH]c1=O`, the Ratio EC50 (Homo sapiens) was 15.

Compound `Cc1cc(OCP(=O)(O)O)cc(C)c1Cc1ccc(O)c(C(C)C)c1` [MB07344] has a Ratio EC50 (Homo sapiens) of 2.1, a half-life [1] of 6.5 h and a half-life [2] of 10.2 h. It also gave a half-life [3] of 9.3 h.

For `CC(C)c1cc(Oc2c(Cl)cc(NC(=O)c3noc(=O)[nH]3)cc2Cl)nn(C)c1=O`, the clearance [4] was 13 mL/min/kg, the Activity (Mus musculus [5]) was “Active” and the Activity (Rattus norvegicus) was “Dose-dependent effect”. For the same compound, the Ratio EC50 (Homo sapiens) was 14.1, the Activity (Mus musculus [6]) was “Active” and the Activity (Mus musculus [7]) was “Active”. It also gave a bioavailability [8] of 24%, an MRT [9] of 1.8 h and a pKa [10] of 4.5. The Vd [11] was 0.53 L/kg, the AUC(0-t) at 24 h [12] was 17200 ng·h/mL and the Activity (Mus musculus [13]) was “Active”. The Tmax [14] was 1 h.

Compound `CCC(O)c1cc(Oc2c(Cl)cc(NC(=O)c3noc(=O)[nH]3)cc2Cl)n[nH]c1=O` (racemic) has a Ratio EC50 (Homo sapiens) of 16.2.

Compound `CC(C)c1cc(Cc2c(Cl)cc(NCc3noc(=O)[nH]3)cc2Cl)nn(C)c1=O` has a Ratio EC50 (Homo sapiens) of 1.7.
